In general, Ki refers to a dissociation constant, usually derived from enzyme kinetics or from competition with a known ligand.

Assay [1] addresses T1, HCV genotype 1b (BK) NS3 modified enzyme with a R155K mutation (Hepatitis C virus genotype 1b, UniProt P26663, R1181K).
T1 construct: HCV genotype 1b (BK) NS3 modified enzyme
Kind of assay: HCV NS3 protease time-resolved fluorescence (TRF) assay, genotype 1b R155K. It is filed as biochemical. The following applies: Ki 1b R155K, genotype 1b (BK) NS3 R155K; single value. In a few lines: (§1)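 Steps: compound plus NS3/NS4A enzyme for 10 minutes; add peptide substrate to 25 nM; let cleavage proceed 6 hours at room temperature; read product fluorescence (340 nm excitation, 615 nm emission, delayed 400 μs). Enzyme levels gave signal/background 5-20.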

In assay [2] the target is HCV NS3 protease genotype 3a (3A-1) (Hepatitis C virus genotype 3a, UniProt Q81258). Kind of assay: HCV NS3 protease time-resolved fluorescence (TRF) assay, genotype 3a. The following applies: Ki 3a. It counts as biochemical. An outline of the steps:
as §1

Take `C=C[C@@H]1C[C@]1(NC(=O)[C@@H]1C[C@@H]2CN1C(=O)[C@H](C1CCCC1)NC(=O)O[C@@H]1CCC[C@H]1CC/C=C/Cc1c(nc3ccccc3c1OCC)O2)C(=O)NS(=O)(=O)C1CC1` [Example 1, (3aR,7S,10S,12R,21E,24aS)-7-cyclopentyl-N-{(1R,2S)-1-[(cyclopropylsulfonyl)carbamoyl]-2-ethenylcyclopropyl}-19-ethoxy-5,8-dioxo-1,2,3,3a,5,6,7,8,11,12,20,23,24,24a-tetradecahydro-10H-9,12-methanocyclopenta[18,19][1,10,3,6]dioxadiazacyclononadecino[11,12-b]quinoline-10-carboxamide]: the Ki in assay [1] stood at 0.25 nM; in assay [2], 6.1 nM.
The matching figures for `CC1(S(=O)(=O)NC(=O)[C@@]23C[C@H]2/C=C\CCCCC[C@@H]2NC(=O)O[C@@H]4C[C@H]4CCC/C=C/c4c(nc5ccccc5c4OCCN4CCOCC4)O[C@@H]4C[C@@H](C(=O)N3)N(C4)C2=O)CC1` [Example 297, (1aR,5S,11Z,12aS,13aR,16S,19R,27E, 31aR)-N-[(1-methylcyclopropyl)sulfonyl]-26-[2-(morpholin-4-yl)ethoxy]-3,15,33-trioxo-1,1a,3,4,5,6,7,8,9,10,12a,13,15,16,18,19,29, 30,31,31a-icosahydro-5,17:16,19-dimethanodicyclopropa[12,13:28,29][1,20,3, 14,17]dioxatriazacyclononacosino[21,22-b]quinoline-13a(14H)-carboxamide]: 0.27 nM and 4.3 nM.
With `CC[C@@H]1C[C@]1(NC(=O)[C@@H]1C[C@@H]2CN1C(=O)[C@H](C1CCCC1)NC(=O)O[C@@H]1CCC[C@H]1CC/C=C/Cc1c(nc3ccccc3c1OC)O2)C(=O)NS(=O)(=O)C1CC1` [Example 5, (3aR,7S,10S,12R,21E,24aS)-7-cyclopentyl-N-{(1R,2R)-1-[(cyclopropylsulfonyl)carbamoyl]-2-ethylcyclopropyl}-19-methoxy-5,8-dioxo-1,2,3,3a, 5,6,7,8,11,12,20,23,24,24a-tetradecahydro-10H-9,12-methanocyclopenta[18,19][1,10,3,6] dioxadiazacyclononadecino[11,12-b]quinoline-10-carboxamide], the Ki in assay [1] is 0.59 nM; in assay [2], 17 nM.
Consider `C=C[C@@H]1C[C@]1(NC(=O)[C@@H]1C[C@@H]2CN1C(=O)[C@H](C(C)(C)C)NC(=O)O[C@@H]1C[C@H]1CCCCCc1c(nc3cc(C(C)C)ccc3c1OCCN1CCOCC1)O2)C(=O)NS(=O)(=O)C1(C)CC1` [Example 132, (1aR,5S,8S,10R,22aR)-5-tert-butyl-N-[(1R,2S)-2-ethenyl-1-{[(1-methylcyclopropyl)sulfonyl]carbamoyl}cyclopropyl]-17-[2-(morpholin-4-yl)ethoxy]-3,6-dioxo-14-(propan-2-yl)-1,1a,3,4,5,6,9,10,18,19,20,21,22,22a-tetradecahydro-8H-7,10-methanocyclopropa[18,19][1,10,3,6]dioxadiazacyclononadecino[11,12-b]quinoline-8-carboxamide], for which the Ki came to 0.39 nM in assay [1] and 6.8 nM in assay [2].
Regarding `C=C[C@@H]1C[C@]1(NC(=O)[C@@H]1C[C@@H]2CN1C(=O)[C@H](C(C)(C)C)NC(=O)O[C@@H]1C[C@H]1CCCCCc1c(nc3ccccc3c1OC[C@H]1CNCCO1)O2)C(=O)NS(=O)(=O)C1(C)CC1` [Example 221, (1aR,5S,8S,10R,22aR)-5-tert-butyl-N-[(1R,2S)-2-ethenyl-1-{[(1-methylcyclopropyl)sulfonyl]carbamoyl}cyclopropyl]-17-[(2R)-morpholin-2-ylmethoxy]-3,6-dioxo-1,1a,3,4,5,6,9,10,18,19,20,21,22,22a-tetradecahydro-8H-7,10-methanocyclopropa[18,19][1,10,3,6]dioxadiazacyclononadecino[11,12-b]quinoline-8-carboxamide], the inhibition constant Ki in assay [1] was 0.05 nM; in assay [2], 1.4 nM.
The corresponding values for `C=C[C@@H]1C[C@]1(NC(=O)[C@@H]1C[C@@H]2CN1C(=O)[C@H](C(C)(C)C)NC(=O)O[C@@H]1CCC[C@H]1CCCCCc1c(nc3ccccc3c1OCCN(C)C)O2)C(=O)NS(=O)(=O)C1(COC)CC1` [Example 63, (3aR,7S,10S,12R, 24aR)-7-tert-butyl-19-[2-(dimethylamino)ethoxy]-N-[(1R,2S)-2-ethenyl-1-({[1-(methoxymethyl)cyclopropyl]sulfonyl}carbamoyl)cyclopropyl]-5,8-dioxo-1,2,3,3a, 5,6,7,8,11,12,20, 21,22,23,24,24a-hexadecahydro-10H-9,12-methanocyclopenta [18,19][1,10,3,6]dioxa-diazacyclononadecino [11,12-b]quinoline-10-carboxamide] are 0.35 nM and 7.2 nM.
The corresponding values for `C=C[C@@H]1C[C@]1(NC(=O)[C@@H]1C[C@@H]2CN1C(=O)[C@H](C(C)(C)C)NC(=O)O[C@]1(C)C[C@H]1CCCCCc1c(nc3ccccc3c1OCCN1CCOCC1)O2)C(=O)NS(=O)(=O)C1(COC)CC1` [Example 99, (1aR,5S,8S,10R,22aR)-5-tert-butyl-N-[(1R,2S)-2-ethenyl-1-({[1-(methoxymethyl)cyclopropyl]sulfonyl}carbamoyl)cyclopropyl]-1a-methyl-17-[2-(morpholin-4-yl)ethoxy]-3,6-dioxo-1,1a, 3,4,5,6,9,10,18,19,20,21,22,22a-tetradecahydro-8H-7,10-methano-cyclopropa[18,19][1,10,3,6] dioxadiazacyclononadecino [11,12-b]quinoline-8-carboxamide] are 0.28 nM and 2.8 nM.
Turning to `C=C[C@@H]1C[C@]1(NC(=O)[C@@H]1C[C@@H]2CN1C(=O)[C@H](C1CCCC1)NC(=O)O[C@H]1C[C@@H]1CC/C=C/Cc1c(nc3ccccc3c1OC)O2)C(=O)NS(=O)(=O)C1CC1` [Example 12, (1aS,5S,8S,10R,19E,22aS)-5-cyclo pentyl-N-{(1R,2S)-1-[(cyclopropylsulfonyl)carbamoyl]-2-ethenylcyclopropyl}-17-methoxy-3,6-dioxo-1,1a,3,4,5,6,9,10,18,21,22,22a-dodecahydro-8H-7,10-methanocyclopropa[18,19][1,10,3,6] dioxadiazacyclononadecino[11,12-&]quinoline-8-carboxamide], the Ki in assay [1] stood at 3.3 nM; in assay [2], 340 nM.
The matching figures for `C=C[C@@H]1C[C@]1(NC(=O)[C@@H]1C[C@@H]2CN1C(=O)[C@H](C(C)(C)C)NC(=O)O[C@@H]1C[C@H]1CCCCCc1c(nc3ccccc3c1OCCCNC(C)C)O2)C(=O)NS(=O)(=O)C1(C)CC1` [Example 185, (1aR,5S,8S,10R,22aR)-5-tert-butyl-N-[(1R,2S)-2-ethenyl-1-{[(1-methylcyclopropyl)sulfonyl]carbamoyl}cyclopropyl]-3,6-dioxo-17-[3-(propan-2-ylamino)propoxy]-1,1a,3,4,5,6,9,10,18,19,20,21,22,22a-tetradecahydro-8H-7,10-methanocyclopropa[18,19][1,10,3,6] dioxadiazacyclononadecino[11,12-b] quinoline-8-carboxamide]: 0.032 nM and 0.36 nM.
